Structures can show the parent of a compound that is named as a salt. Where two headings read alike, the source gives them in different places. Marks after values point to notes of the source that are not given here.
Assays:
[1] = test system: monoamine transmitters (NA, DA and 5-HT); experiment: In vivo brain microdialysis of monoamines in striatum and frontal cortex; set-up: species or system rat; conditions: rats; for response vs control in vivo at 50 µmol/kg: Rattus norvegicus, sc
Source text: The microdialysis technique (See, for instance, Collin and Ungerstedt, Microdialysis: user's guide, Carnegie Medicin, Stockholm, 1988) is a well-established technique for measuring extracellular levels of neurotransmitters (Ungerstedt, J Int Med, 1991, 230; 365-73). The microdialysis technique was used to measure the effect of compounds disclosed herein upon the efflux of monoamine transmitters (NA, DA and 5-HT) in striatum and frontal cortex in conscious, freely moving rats.
Male Sprague-Dawley rats weighing 280-320 g were used throughout the experiments. Before the experiment the animals were housed in groups, maximum five animals in each cage, with free access to water and food. The animals were housed at least one week prior to surgery and use in the experiments.
A modified version (Waters et al., J Neural Transm Gen Sect, 1994, 98(1); 39-55) of the I-shaped probe (Santiago and Westerink, N-S Arch Pharmacol, 1990, 342; 407-14) with the AN69 polyacrylonitrile/sodium methyl sulfonate copolymer (HOSPAL; o.d/i.d. 310/220 μm: dialysis membrane (Gambro, Lund, Sweden) was used in the microdialysis experiments. In the dorsal striatum, probes with an exposed length of 3 mm of dialysis membrane were used and in the prefrontal cortex the corresponding length was 2.5 mm. The rats were operated under isoflurane inhalation anesthesia while mounted into a Kopf stereotaxic instrument. Coordinates were calculated relative to bregma; dorsal striatum AP+1.0, ML±2.6, DV 6.2; Pf cortex, AP 15+3.2, ML+1.2, DV −4.08°, according to Paxinos and Watson (New York, Academic Press, 1986; FIG. 8 and FIG. 14). The dialysis probe was positioned in a burr hole under stereotaxic guidance and cemented with phosphatine dental cement (DAB Dental).
The rats were housed individually in cages for 48 h before the dialysis experiments, allowing them to recover from surgery and minimizing the risk of drug interactions with the anesthetics during the following experiments. During this period the rats had free access to food and water.
On the day of the experiment the rats were connected to a micro-perfusion pump via a swivel and were replaced in the cage where they could move freely within its confinements. The perfusion medium was a Ringer's solution containing (in mmol/I): NaCl; 140, CaCl2; 1.2, KCl; 3.0, MgCl2; 1.0 (Moghaddam and Bunney. Neurochem., 1989, 53; 652-4). The pump was set to a perfusion speed of 2 μl/min and 40 μl sample volume were collected every 20 min.
The rats were perfused for at least 40 min before sampling began. Five fractions of each 20 min were collected and the last three were used for the establishment of the baseline. After collection of baseline fractions, the pharmacological challenge to the dialysis experiment started. Test compounds were administrated by injection (s.c.) in a volume of 5 ml/kg, with 0.9% NaCl (saline) as vehicle.
The analytical method were based on two chromatographic separations dedicated for amines or acids. Two chromatographic systems shared a common auto injector with a 10-port valve and two sample loops for simultaneous injection on the two systems.
The acids were separated by reversed phase chromatography while the amines were separated by reversed phase ion pairing chromatography preceded by a reverse phase separation in a column switching configuration. Three separation columns (Luna C18 (2), dp 3 μm, 2 mm i.d., Phenomenex) of different lengths were used. Electrochemical detection was accomplished on glassy carbon electrodes (MF-1000, Bioanalytical Systems, Inc.)
The aqueous mobile phase (0.6 ml/min) for the acid system contained citric acid (40 mM, dipotassium hydrogen phosphate 10 mM, methanol 8-11% (v/v) and EDTA 0.1 mM. Column length was 30 mm and detection potential relative to Ag/AgCl reference was 0.74V. […]

[2] = test system: non-pre-treated Sprague-Dawley rats; experiment: Locomotor activity in drug-naïve rats (behaviour test); type: in vivo, rat; conditions: recorded 60 minutes, n = 5
Procedure: The effect of compounds in the present disclosure on locomotor activity in drug-naïve rats was also investigated. The animals were placed in the motility meters immediately after drug administration and locomotor activity was recorded for 60 minutes (counts/60 min±SEM). The results are presented as percent of control.
Behavioural activity was measured using eight Digiscan activity monitors (RXYZM (16) TAO, Omnitech Electronics, Columbus, Ohio, USA), connected to an Omnitech Digiscan analyzer and an Apple Macintosh computer equipped with a digital interface board (NB DIO-24, National Instruments, USA). Each activity monitor consisted of a quadratic metal frame (W×L=40 cm×40 cm) equipped with photo beam sensors. During measurements of behavioural activity, a rat was put in a transparent acrylic cage (W×L×H, 40×40×30 cm) which in turn was placed in the activity monitor. Each activity monitor was equipped with three rows of infrared photo beam sensors, each row consisting of 16 sensors. Two rows were placed along the front and the side of the floor of the cage, at a 90° angle, and the third row was placed 10 cm above the floor to measure vertical activity. Photo beam sensors were spaced 2.5 cm apart. Each activity monitor was fitted in an identical sound and light attenuating box containing a weak house light and a fan.
The computer software was written using object oriented programming (LabVIEW™, National instruments, Austin, Tex., USA).
Behavioural data from each activity monitor, representing the position (horizontal center of gravity and vertical activity) of the animal at each time, were recorded at a sampling frequency of 25 Hz and collected using a custom written LABView™ application. The data from each recording session were stored and analyzed with respect to distance traveled. Each behavioural recording session lasted 60 min, starting approximately 5 min after the injection of test compound.
Compounds disclosed herein have been tested for effects on spontaneous locomotor activity in non-pre-treated Sprague-Dawley rats (based on accumulated distance traveled 0-60 min post dosing), and with doses up to 33 μmol/kg (s.c.).

[3] = 50 μmol/kg s.c., frontal cortex dialysate, read-out: 5-HT FC ± SEM, maximum effect compared to baseline
[4] = 50 μmol/kg s.c., frontal cortex dialysate, read-out: DA FC ± SEM, maximum effect compared to baseline
[5] = 50 μmol/kg s.c., frontal cortex dialysate, read-out: NA FC ± SEM, maximum effect compared to baseline
[6] = 50 μmol/kg s.c., striatum dialysate, read-out: 5-HT Stri ± SEM, maximum effect compared to baseline
[7] = 50 μmol/kg s.c., striatum dialysate, read-out: DA Stri ± SEM, maximum effect compared to baseline
[8] = 50 μmol/kg s.c., striatum dialysate
[9] = 16.7 μmol/kg s.c., frontal cortex dialysate, Fumarate Salt
[10] = 16.7 μmol/kg s.c., striatum dialysate, Fumarate Salt

SMILES	response vs control in vivo at 50 µmol/kg [1, 3]	response vs control in vivo at 50 µmol/kg [1, 4]	response vs control in vivo at 50 µmol/kg [1, 5]	response vs control in vivo at 50 µmol/kg [1, 6]	response vs control in vivo at 50 µmol/kg [1, 7]	melting point	also measured
Fc1cccc(F)c1C(F)C1CNC1 (centres unmarked) [Example 7, 3-[(2,6-Difluorophenyl)(Fluoro)Methyl]Azetidine Oxalate Salt]	404 ± 21%	860 ± 283%	570 ± 6%	213%	130%		
CCCN1CC(C(F)c2cc(F)cc(F)c2)C1 (centres unmarked) [Example 20, 3-[(3,5-Difluorophenyl)(Fluoro)Methyl]-1-Propylazetidine Oxalate Salt]	171%	362%	264%	145%	111%		
CCN1CC(C(F)c2cccc(F)c2F)C1 (centres unmarked) [Example 16, 3-[(2,3-Difluorophenyl)(Fluoro)Methyl]-1-Ethylazetidine Hydrochloric Acid Salt]	197 ± 124%	229 ± 23%	272 ± 58%	313 ± 23%	139 ± 4%		
CCN1CC(C(F)c2cc(F)cc(F)c2F)C1 (centres unmarked) [Example 22, 1-Ethyl-3-[Fluoro(2,3,5-Trifluorophenyl)Methyl]Azetidine Oxalate Salt]	140%	654 ± 212%			158%		
Fc1cc(C(F)C2CNC2)cc(F)c1F (centres unmarked) [Example 12, 3-[Fluoro(3,4,5-Trifluorophenyl)Methyl]Azetidine Oxalate Salt]	322 ± 4%	252 ± 70%	214 ± 28%	359 ± 105%	131%		
Fc1cc(F)c(C(F)C2CNC2)c(F)c1.O=C(O)C(=O)O (centres unmarked) (hydrate or solvate)						149.6 °C	
Cl.Fc1cccc(C(F)C2CNC2)c1F (single isomer, unassigned; (+)) [Example 2, (+)-3-[(2,3-Difluorophenyl)(Fluoro)Methyl]Azetidine Hydrochloric Acid Salt]		580 ± 223%	394 ± 273%				5-HT FC ± SEM, maximum effect compared to baseline ([1]; 50 μmol/kg s.c., frontal cortex dialysate): 253 ± 92^b percent of control; 5-HT Stri ± SEM, maximum effect compared to baseline [1, 8]: 249 ± 5^b percent of control; DA Stri ± SEM, maximum effect compared to baseline [1, 8]: 149 ± 7^b percent of control; NA Stri ± SEM, maximum effect compared to baseline [1, 8]: 126 ± 7^b percent of control; locomotor activity, percent of control means ([2]; 11 μmol/kg s.c.): 152%; locomotor activity, percent of control means ([2]; 33 μmol/kg s.c.): 159%*
Fc1cc(F)cc(C(F)C2CNC2)c1.O=C(O)/C=C/C(=O)O (single isomer, unassigned; (+)) [Example 4, (+)-3-[(3,5-Difluorophenyl)(Fluoro)Methyl]Azetidine Fumarate Salt]							5-HT FC ± SEM, maximum effect compared to baseline [1, 9]: 170^a percent of control; DA FC ± SEM, maximum effect compared to baseline [1, 9]: 226^a percent of control; NA FC ± SEM, maximum effect compared to baseline [1, 9]: 198^a percent of control; 5-HT Stri ± SEM, maximum effect compared to baseline [1, 10]: 198^a percent of control; DA Stri ± SEM, maximum effect compared to baseline [1, 10]: 116^a percent of control; NA Stri ± SEM, maximum effect compared to baseline [1, 10]: 122^a percent of control
Fc1ccc(C(F)C2CNC2)c(F)c1F (centres unmarked) [Example 11, 3-[Fluoro(2,3,4-Trifluorophenyl)Methyl]Azetidine Oxalate Salt]	236%	263%	342%	366%	85 ± 14%		
Fc1cc(F)c(F)c(C(F)C2CNC2)c1.O=C(O)C(=O)O (centres unmarked) [Example 9, 3-[Fluoro(2,3,5-Trifluorophenyl)Methyl]Azetidine Oxalate Salt]	207 ± 21%		840 ± 122%	231 ± 106%	127 ± 13%		NA Stri ± SEM, maximum effect compared to baseline [1, 8]: 860^a percent of control
Cl.Fc1ccc(C(F)C2CNC2)cc1F (centres unmarked) [Example 5, 3-[(3,4-Difluorophenyl)(Fluoro)Methyl]Azetidine Hydrochloric Acid Salt]	234%	330 ± 75%		435 ± 61%	136 ± 4%		NA Stri ± SEM, maximum effect compared to baseline [1, 8]: 480^a percent of control
CCCN1CC(C(F)c2cccc(F)c2F)C1.O=C(O)C(=O)O (centres unmarked) (hydrate or solvate)						137.4 °C	
Fc1ccc(C(F)C2CNC2)c(F)c1 (centres unmarked) [Example 8, 3-[(2,4-Difluorophenyl)(Fluoro)Methyl]Azetidine Oxalate Salt]	428 ± 118%	549 ± 163%	400 ± 28%	402 ± 12%	133 ± 15%		
Fc1cc(F)c(F)c(C(F)C2CNC2)c1F.O=C(O)C(=O)O (centres unmarked) (hydrate or solvate)						181.6 °C	
CCCN1CC(C(F)c2cc(F)cc(F)c2F)C1.O=C(O)C(=O)O (centres unmarked) (hydrate or solvate)						159 °C	
CCN1CC(C(F)c2cc(F)c(F)c(F)c2)C1.O=C(O)C(=O)O (centres unmarked) (hydrate or solvate)						129.8 °C	
CCN1CC(C(F)c2c(F)c(F)cc(F)c2F)C1.O=C(O)C(=O)O (centres unmarked) (hydrate or solvate)						145.9 °C	
CCN1CC(C(F)c2cc(F)cc(F)c2)C1 (centres unmarked) [Example 19, 3-[(3,5-Difluorophenyl)(Fluoro)Methyl]-1-Ethylazetidine Oxalate Salt]	212 ± 15%	399 ± 30%	354 ± 54%	170 ± 63%	144 ± 10%		

From US10087142B2, “Azetidine derivatives useful as modulators of cortical cathecolaminergic neurotransmission” (Integrative Research Laboratories Sweden AB, priority 2015, dated 2018)
